# Data reported in patent publication US20120115128A1, “SELECTIVE PROTEIN LABELING” (THE BOARD OF TRUSTEES OF THE UNIVERSITY OF ILLINOIS, priority 2009, published 2012).
# Read-outs that look alike come from different tables or passages of the source.
# T1: GFP-cldn1/tail (N-terminal fusion of EGFP to the C-terminal cytoplasmic domain, residues 187-211, of human … (human, UniProt O95832 187-211, not fully specified))
# T1 construct: Expressed in living MDCK cells; GFP is the FRET acceptor; also called C-terminal cytoplasmic tail of claudin-1; not shown: enhanced GFP (EGFP) as encoded in vector pEGFP-C1 (Clontech)
# T1 chain (looked up): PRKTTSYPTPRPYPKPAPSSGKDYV
# B1: ZO-1/PDZ1-eDHFR (C-terminal fusion of eDHFR to the PDZ1 domain, residues 19-113, of human ZO-1) (other, human;Escherichia coli)
# chain: MWEQHTVTLHRAPGFGFGIAISGGRDNPHFQSGETSIVISDVLKGGPAEGQLQENDRVAMVNGVSMDNVEHAFAVQQLRKSGKNAKITIRRKKKVQMISLIAALAVDRVIGMENAMPWNLPADLAWFKRNTLNKPVIMGRHTWESIGRPLPGRKNIILSSQPGTDDRVTWVKSVDEAIAACGDVPEIMVIGGGRVYEQFLPKAQKLYLTHIDAEVEGDTHFPDYEPDDWESVFSEFHDADAQNSHSYCFEILERR
# notes: Built by inserting ZO-1 19-113 into pLL-1NLS in frame with eDHFR; also called PDZ1 domain of ZO-1
# Key:
# [1] = test system: E. coli (strain DH5α); experiment: E. coli growth inhibition assay (MIC on agar plates); format: cell-based; details: for MIC: Escherichia coli, read-out: minimum inhibitory concentration (MIC)
# Source text: E. coli growth inihibition assay. […] The minimal inhibitory concentration (MIC) was reported as the lowest concentration at which no colonies formed.
# [2] = test system: nucleus-targeted pfDHFR (K27E, C59R, S108N) soluble domain in NIH 3T3 fibroblast cells; details: 500 nM, ca. 15 minutes
# [3] = test system: human cells; details: cited from earlier work
# [4] = test system: human leukocytes; details: cited from earlier work
# [5] = biological target: T2, eDHFR (Escherichia coli, UniProt P0ABQ4); experiment: biochemical; set-up: species or system E. coli; details: terbium-complexed probe 20 nM, purified eDHFR-GFP, non-linear least-squares fit; read-out: dissociation constant for binding to eDHFR
# T2 construct: pRSETb-EGFP-eDHFR expressed the protein fusion […]-[EGFP]-GSGGSG-[eDHFR]; His6 leader of pRSETb ([…]) (N); made in house; host or cells: E. coli BL21 DE3 (pLysS)
# [6] = biological target: eDHFR expressed on the cell surface of NIH3T3 fibroblasts (Escherichia coli, UniProt P0ABQ4); experiment: Labeling of cell surface-expressed eDHFR (pDisplay-eDHFR) on NIH3T3 fibroblasts, microscopy; format: cell-based; details: 1 μM, 10 min, time-resolved imaging
# [7] = biological target: T1, GFP-cldn1/tail (N-terminal fusion of …); experiment: intermolecular TR-FRET microscopy in living MDCK cells; sensitized GFP emission at 520 nm
# [8] = biological target: GFP-cldn1/tailΔYV (GFP-cldn1/tail construct lacking the C-terminal YV motif) (human) (UniProt O95832); experiment: as above
# [9] = biological target: T1, GFP-cldn1/tail (N-terminal fusion of …); experiment: intermolecular TR-FRET microscopy in living MDCK cells; reference pair ZO-1/PDZ1-eDHFR and GFP-cldn1/tailΔYV
molecule,measurement,setting,value
CCOc1cc(Cc2cnc(N)nc2N)ccc1OCc1cc(OC)c(OCCCCC(=O)NCCOCCOCCNC(=O)OC(C)(C)C)c(OC)c1 [Compound 2a],MIC,"[1]; 37° C., 24 hours, lowest concentration at which no colonies formed",~20 µM
same,cell permeability (diffuse fluorescence),[2],passively diffused into mammalian cells
COc1cc(Cc2cnc(N)nc2N)cc(C#CCCCC(=O)O)c1OCCCCC(=O)NCCOCCOCCN [Compound 3a],ability to cross the E. coli cell membrane (inferred from growth assay),[1],cannot cross the cell membrane
same,MIC,[1]; 24 h,> 100 µM
"CN(Cc1cnc2nc(N)nc(N)c2n1)c1ccc(C(=O)N[C@@H](CCC(=O)O)C(=O)O)cc1 [MTX, Methotrexate]",extracellular concentration at which DNA damage has been observed,[3],10 µM
same,concentration at which toxicity observed,[4],2000 nM
COc1cc(Cc2cnc(N)nc2N)cc(OC)c1OCCCCC(=O)NCCOCCOCCNC(=O)CN(CCN(CCN(CC(=O)O)CC(=O)Nc1ccc2c(C)cc(=O)[nH]c2c1)CC(=O)O)CC(=O)O [TMP-cDTPA],Kd,[5],9 ± 1.3 nM
same,"cell-surface labelling of eDHFR, time-resolved mode",[6],not
B1,signal-to-noise ratio for intermolecular TR-FRET,[7],6.3
same,signal-to-noise ratio for intermolecular TR-FRET,[8],1.5
same,fold difference in TR-FRET signal against GFP-cldn1/tailΔYV,[9],> 4 fold
